From PubChem BioAssay (NCI)
Values joined by “and” are separate entries in the source; they are usually repeats but may differ in a detail not shown here. Identical values can stand only once.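 Five compound concentrations were applied to cells in 96-well plates for 48 hours; endpoints were derived by simple linear interpolation of the resulting dose-response curve. Here, GI50 denotes the concentration required for 50% inhibition of growth. At the TGI there is no net growth.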

Experiments:
Experiment in all cases: NCI-60 cell line screen, 48 h
[1] = test system: A498 renal
[2] = test system: BT-549 breast
[3] = test system: COLO 205 colon
[4] = test system: DU-145 prostate
[5] = test system: K-562 leukemia
[6] = test system: LOX IMVI melanoma
[7] = test system: OVCAR-8 ovarian
[8] = test system: RXF 393 renal
[9] = test system: SF-295 CNS
[10] = test system: UO-31 renal

| Structure (SMILES) | GI50 [1] [µM] | TGI [1] | GI50 [2] [µM] | TGI [2] [µM] | GI50 [3] [µM] | TGI [3] [µM] | GI50 [4] [µM] | TGI [4] [µM] | GI50 [5] [µM] | TGI [5] [µM] | GI50 [6] [µM] | TGI [6] | GI50 [7] [µM] | TGI [7] [µM] | GI50 [8] [µM] | TGI [8] | GI50 [9] [µM] | TGI [9] [µM] | GI50 [10] [µM] | TGI [10] [µM] |
| --- | --- | --- | --- | --- | --- | --- | --- | --- | --- | --- | --- | --- | --- | --- | --- | --- | --- | --- | --- | --- |
| COc1cc(/C=C/C(=O)c2ccc(F)cc2)ccc1OCCCN1CCN(CC(=O)Nc2ccc(Cl)cc2C(=O)c2ccccc2Cl)CC1 | 29.4 | > 100 µM | 10.8 | 26.2 | 4.47 | 23.8 | 29.8 | > 100 | 3.6 | > 100 | 3.97 | 14.6 µM | 11.7 | 68.1 | 2.84 | 15.8 µM | 5.57 | 19 | 2.45 | 20 |
| O=[N+]([O-])c1cc(Cl)cnc1Br | – | 32 µM | – | 11.3 | – | 3.12 | – | > 100 | – | 6.08 | – | 3.16 µM | – | 5.02 | – | 3.12 µM | – | 10.6 | – | 3.59 |
| COc1cc([N+](=O)[O-])c(OC)cc1-c1nc2sccn2c1/C=N/N=C(N)N | 27.4 | 66.5 µM | 18.6 | 42.2 | 66 | > 100 | 30.4 | > 100 | 1.03 | > 100 | 17.9 | 41.5 µM | 17.3 | 59.8 | 50.1 | > 100 µM | 19.5 | > 100 | 42.5 | > 100 |
| COc1cccc(-c2cc3c4c(nc5ccccc53)C(=O)c3cccnc3-c4n2)c1 | 14.1 | 29.5 µM | 10.6 | 28.1 | 5.56 | 10.9 | 1.67 | 3.13 | 1.82 | > 100 | 2.31 | > 100 µM | 1.69 | 7.08 | 2.47 | 9.91 µM | 2.34 | 6.44 | 2.02 | 8.45 |
| Cc1cn2c(/C=C3/C(=O)Nc4ccc(O)cc43)c(C)nc2s1 | 19.1 | 67.7 µM | 5.82 | 57.7 | 3.58 | > 100 | 6.43 | > 100 | 0.362 | > 61.8 | 4.46 | 99.6 µM | 10.4 | > 51.7 | 2.89 | > 72.5 µM | 1.73 | 8.08 | 26.5 | > 100 |
| C=C1CC[C@@H]2[C@](C)(COC(C)=O)[C@H](OC(C)=O)CC[C@@]2(C)[C@@H]1CC(Nc1ccc(S(=O)(=O)Nc2ccc(Cl)nn2)cc1)C1=CCOC1=O (stereo partly specified) | 1.4 | 4.26 µM | 1.58 | 3.14 | 1.46 | 3.16 | 1.7 | 3.45 | 0.526 | 5.19 | 0.295 | 1.19 µM | – | – | 1.77 | 3.29 µM | 3.28 | 12.6 | 1.45 | 2.88 |
| O=c1c(O)c(-c2ccc(O)c(O)c2)oc2cc(O)cc(O)c12 | 7.11 | 24.2 µM and > 100 µM | 13.3 | 77.7 | 60.8 | > 100 | 20 | > 100 | 5.2 | > 100 | 11.4 | > 84.1 µM and 35.9 µM | 14.1 | > 100 | 11.7 | 50.9 µM and > 100 µM | 23.1 | > 100 | 8.48 | > 100 |
| COc1ccccc1CNCCCN1C(=O)c2ccc3c4c(ccc(c24)C1=O)C(=O)N(CCCN)C3=O | 1.57 | 3.04 µM | 1.58 | 2.99 | 0.814 | 2.12 | 1.38 | 2.71 | 0.751 | 3.35 | 0.685 | 2.87 µM | 0.49 | 3.81 | 0.628 | 1.83 µM | 1.31 | 2.81 | 1.96 | 5.35 |
| CC1=C(CCC(C)NCc2ccc(OCCCN3CCCCC3)cc2)C(C)(C)CCC1 (stereo unspecified) | 1.43 | 2.95 µM | 2.08 | 3.89 | 0.197 | 0.427 | 1.85 | 4.17 | 0.227 | 0.509 | 1.44 | 2.85 µM | 2.48 | 5.31 | 1.6 | 3.06 µM | 1.66 | 3.23 | 1.56 | 2.97 |
| N#Cc1nc2c(S(=O)(=O)c3ccc(Cl)cc3)c(N)n(CCCN3CCOCC3)c2nc1C#N | 2.6 | 14.6 µM | 5.75 | 42 | 3.45 | 13.6 | 3.79 | 19.1 | 3 | 31 | 4.76 | 17.3 µM | 4.07 | > 100 | 1.05 | 5.21 µM | 17.6 | 40.7 | 4.58 | > 100 |
| Cc1ccc(C(=O)NC2CCC2)cc1-c1ccc(C(=O)NCC2CC2)cc1 | 25 | > 25 µM | > 25 | > 25 | > 25 | > 25 | > 25 | > 25 | > 25 | > 25 | > 25 | > 25 µM | > 25 | > 25 | > 25 | > 25 µM | > 25 | > 25 | > 25 | > 25 |
| O=S(=O)(c1cccc2c(I)cccc12)N1CCCNCC1 | 14.2 | 30.2 µM | 16.7 | 43.3 | 29.1 | > 100 | 15.8 | 36.3 | 10.9 | 30.4 | 18.3 | 36.6 µM | 24.4 | 51.9 | 27.3 | 73 µM | 16.1 | 34.1 | 15.6 | 34 |
| CCOC(=O)c1cc2c(n1Cc1cc(OC)c(OC)c(OC)c1)-c1oncc1CCC2 | 0.0602 | 0.435 µM | 0.647 | 22 | 0.109 | 0.495 | 0.302 | 6.87 | 0.0973 | > 100 | 0.401 | > 35.7 µM | 0.332 | > 49.7 | 0.126 | > 100 µM | – | – | 0.303 | > 67.4 |
